Experimental data as given in the NIST ThermoML archive (doi:10.1021/je200637v).
± gives the expanded uncertainty stated by the source.

Test: activity coefficient (dimensionless); of the first substance listed, at infinite dilution; xn = mol fraction of the nth substance listed
Details: Liquid, Chromatography, x1 = 0

Compound	activity coefficient (322.85 K)	activity coefficient (332.65 K)	activity coefficient (343.15 K)
Cc1ccccc1C [1,2-dimethylbenzene] + CCCCCCCCCC[N+](C)(C)C.O=S(=O)([N-]S(=O)(=O)C(F)(F)F)C(F)(F)F	1.03 ± 0.03	1.07 ± 0.03	1.07 ± 0.03
Cc1ccccc1C [1,2-dimethylbenzene] + CCCCCCCC[N+](C)(C)C.O=S(=O)([N-]S(=O)(=O)C(F)(F)F)C(F)(F)F	1.24 ± 0.04	1.26 ± 0.04	1.25 ± 0.04
Cc1ccccc1C [1,2-dimethylbenzene] + CCCCCCCC[N+](CCCCCCCC)(CCCCCCCC)CCCCCCCC.O=S(=O)([N-]S(=O)(=O)C(F)(F)F)C(F)(F)F	–	0.57 ± 0.03	0.58 ± 0.03
Cc1ccccc1C [1,2-dimethylbenzene] + CCCC[N+](C)(CCCC)CCCC.O=S(=O)([N-]S(=O)(=O)C(F)(F)F)C(F)(F)F	1.38 ± 0.05	1.46 ± 0.06	1.46 ± 0.06
Cc1cccc(C)c1 [1,3-dimethylbenzene] + CCCCCCCCCC[N+](C)(C)C.O=S(=O)([N-]S(=O)(=O)C(F)(F)F)C(F)(F)F	1.11 ± 0.03	1.14 ± 0.03	1.11 ± 0.03
Cc1cccc(C)c1 [1,3-dimethylbenzene] + CCCCCCCC[N+](C)(C)C.O=S(=O)([N-]S(=O)(=O)C(F)(F)F)C(F)(F)F	1.39 ± 0.05	1.39 ± 0.05	1.38 ± 0.05
Cc1cccc(C)c1 [1,3-dimethylbenzene] + CCCCCCCC[N+](CCCCCCCC)(CCCCCCCC)CCCCCCCC.O=S(=O)([N-]S(=O)(=O)C(F)(F)F)C(F)(F)F	–	0.6 ± 0.03	0.62 ± 0.03
Cc1cccc(C)c1 [1,3-dimethylbenzene] + CCCC[N+](C)(CCCC)CCCC.O=S(=O)([N-]S(=O)(=O)C(F)(F)F)C(F)(F)F	1.49 ± 0.06	1.56 ± 0.06	1.56 ± 0.06
Cc1ccc(C)cc1 [1,4-dimethylbenzene] + CCCCCCCCCC[N+](C)(C)C.O=S(=O)([N-]S(=O)(=O)C(F)(F)F)C(F)(F)F	1.12 ± 0.03	1.15 ± 0.04	1.13 ± 0.03
Cc1ccc(C)cc1 [1,4-dimethylbenzene] + CCCCCCCC[N+](C)(C)C.O=S(=O)([N-]S(=O)(=O)C(F)(F)F)C(F)(F)F	1.38 ± 0.05	1.39 ± 0.05	1.37 ± 0.05
Cc1ccc(C)cc1 [1,4-dimethylbenzene] + CCCCCCCC[N+](CCCCCCCC)(CCCCCCCC)CCCCCCCC.O=S(=O)([N-]S(=O)(=O)C(F)(F)F)C(F)(F)F	–	0.6 ± 0.03	0.62 ± 0.03
Cc1ccc(C)cc1 [1,4-dimethylbenzene] + CCCC[N+](C)(CCCC)CCCC.O=S(=O)([N-]S(=O)(=O)C(F)(F)F)C(F)(F)F	1.51 ± 0.06	1.62 ± 0.07	1.56 ± 0.06
C1COCCO1 [1,4-dioxane] + CCCCCCCCCC[N+](C)(C)C.O=S(=O)([N-]S(=O)(=O)C(F)(F)F)C(F)(F)F	0.56 ± 0.03	0.57 ± 0.03	0.57 ± 0.03
C1COCCO1 [1,4-dioxane] + CCCCCCCC[N+](C)(C)C.O=S(=O)([N-]S(=O)(=O)C(F)(F)F)C(F)(F)F	0.62 ± 0.03	0.62 ± 0.03	0.61 ± 0.03
C1COCCO1 [1,4-dioxane] + CCCCCCCC[N+](CCCCCCCC)(CCCCCCCC)CCCCCCCC.O=S(=O)([N-]S(=O)(=O)C(F)(F)F)C(F)(F)F	0.47 ± 0.03	0.47 ± 0.03	0.47 ± 0.03
C1COCCO1 [1,4-dioxane] + CCCC[N+](C)(CCCC)CCCC.O=S(=O)([N-]S(=O)(=O)C(F)(F)F)C(F)(F)F	0.61 ± 0.03	0.67 ± 0.03	0.67 ± 0.03
C#CCCCCC [1-heptyne] + CCCCCCCCCC[N+](C)(C)C.O=S(=O)([N-]S(=O)(=O)C(F)(F)F)C(F)(F)F	1.95 ± 0.09	2.02 ± 0.09	1.97 ± 0.09
C#CCCCCC [1-heptyne] + CCCCCCCC[N+](C)(C)C.O=S(=O)([N-]S(=O)(=O)C(F)(F)F)C(F)(F)F	2.48 ± 0.11	2.46 ± 0.11	2.39 ± 0.11
C#CCCCCC [1-heptyne] + CCCCCCCC[N+](CCCCCCCC)(CCCCCCCC)CCCCCCCC.O=S(=O)([N-]S(=O)(=O)C(F)(F)F)C(F)(F)F	0.84 ± 0.03	0.86 ± 0.03	0.87 ± 0.03
C#CCCCCC [1-heptyne] + CCCC[N+](C)(CCCC)CCCC.O=S(=O)([N-]S(=O)(=O)C(F)(F)F)C(F)(F)F	2.79 ± 0.13	2.89 ± 0.13	2.85 ± 0.13
C#CCCCC [1-hexyne] + CCCCCCCCCC[N+](C)(C)C.O=S(=O)([N-]S(=O)(=O)C(F)(F)F)C(F)(F)F	1.61 ± 0.06	1.63 ± 0.07	1.57 ± 0.06
